Assay results reported in PubChem BioAssay AID1963978 (Molecular Pharmacology Branch, DTP, NCI, 2024).
pIC50: −log10 of the molar value.

Test system: 616215-338-R-J1-PDC spheroids with HUVEC/MSC, viability
Assay: Anticancer human tumor 616215-338-R-J1-PDC patient-derived colon adenocarcinoma cell line growth inhibition [PI3K]
Conditions: for viability, T/C: stronger effect = lower value
Description: Combinatorial screen of targeted agents with the PI3K inhibitors inavolisib, alpelisib, duvelisib, and copanlisib in multi-cell type tumor spheroids
A high-throughput screen of multi-cell type tumor spheroids was designed to identify active combinations of targeted small molecules and PI3K pathway inhibitors. Complex spheroids include a stromal component modeled by human endothelial cells (HUVEC) and fibroblasts modeled by human mesenchymal stem cells (MSCs). The concentration ranges selected for each drug and investigational agent were based upon clinically achievable concentrations if the clinical Cmax of the agent was known.
Compounds. The drugs and investigational agents: inavolisib (NSC800729), alpelisib (NSC765974), duvelisib (NSC772469), copanlisib (NSC816437), ipatasertib (NSC767898), afuresertib (NSC778305), talazoparib (NSC767125), sapanisertib (NSC764658), selumetinib (NSC741078), tovorafenib (DAY101, NSC766906), vemurafenib (NSC761431), ravoxertinib (NSC781343), sotorasib (NSC818433), MRTX1133 (NSC 836407), abemaciclib (NSC 768073), palbociclib (NSC758247), venetoclax (NSC 766270), SY5609 (NSC837396), enzalutamide (NSC755605), and darolutamide (NSC825331), were obtained from the National Cancer Institute (NCI) Developmental Therapeutics Program Chemical Repository. The FDA-approved anticancer drug set is available from the NCI Developmental Therapeutics Program. […] The stock solutions were prepared in dimethyl sulfoxide (DMSO, Sigma-Aldrich, St. Louis, MO, cat. D2650) at 800-fold the tested concentration and stored at -70 degrees C prior to their use. All drugs and investigational agents were tested over a range starting from a high concentration at or near the clinical Cmax and decreasing in half-log increments. If the clinical Cmax for an agent had not been determined, the highest concentration tested was 10 microM.
Cell Culture. All cells were maintained in an incubator at 37 degrees C and 5% CO2 with 95% humidity. The PDC lines were cultured according to standard operating procedures established by the NCI PDMR (https://pdmr.cancer.gov/sops/default.htm). All PDCs were thawed and cultured in Matrigel-coated flasks prepared with a working solution of 1X Ham's F-12 nutrient mix, without supplementation (Invitrogen, Waltham, MA, cat. 11765054), 100 U/mL penicillin-streptomycin (Invitrogen, cat. 15140122), and 2.5% Matrigel (Corning Inc., Corning, NY, cat. 354248) for the first three passages. The 354836-022-R-J1-PDC, 475296-252-R-J1-PDC, and 997726-040-R-J2-PDC lines were cultured in 6A media, which includes advanced DMEM/F-12 (Thermo Fisher Scientific, cat. 12634028), 10 mM HEPES (Thermo Fisher Scientific, cat. 15630080), 1X GlutaMAX supplement (Thermo Fisher Scientific, cat. 35050061), 0.1 mg/mL primocin (InvivoGen, San Diego, CA, cat. ant-pm-2), 10% defined fetal bovine serum, heat inactivated (HyClone Laboratories Inc., Logan, UT, cat. SH30070.03HI), 50% L-WRN conditioned media (ATCC, cat. CRL-3276), 1.25 mM N-Acetyl-L-cysteine (Sigma-Aldrich, cat. A9165), 10 mM nicotinamide (Sigma-Aldrich, cat. N0636), 1X B-27 supplement (Thermo Fisher Scientific, cat. 17504044), 1X N-2 supplement (Thermo Fisher Scientific, cat. 17502048), and 10 microM Y-27632 dihydrochloride (Tocris Bioscience, Bristol, United Kingdom, cat. 1254). The 624824-186-R-J2-PDC line was cultured in 6C/Colon 1B media, which includes all 6A media components plus 50 ng/mL human EGF recombinant protein (Thermo Fisher Scientific, cat. PHG0311). […]

[1] = curve of first compound, second compound 0.00316 µM
[2] = curve of first compound, second compound 0.01 µM
[3] = curve of first compound, second compound 0.0316 µM
[4] = curve of first compound, second compound 0.1 µM
[5] = curve of first compound, second compound 0.316 µM
[6] = curve of first compound, second compound 1 µM
[7] = second compound 0.00316 µM, first compound 0.0316 µM
[8] = second compound 0.00316 µM, first compound 0.1 µM
[9] = second compound 0.01 µM, first compound 0.0316 µM
[10] = second compound 0.01 µM, first compound 0.1 µM
[11] = second compound 0.0316 µM, first compound 0.0316 µM
[12] = second compound 0.0316 µM, first compound 0.1 µM
[13] = second compound 0.1 µM, first compound 0.0316 µM
[14] = second compound 0.1 µM, first compound 0.1 µM
[15] = second compound 0.316 µM, first compound 0.0316 µM
[16] = second compound 0.316 µM, first compound 0.1 µM
[17] = second compound 1 µM, first compound 0.0316 µM
[18] = second compound 1 µM, first compound 0.1 µM
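Note: spheroids exposed to agents for seven days before the viability read.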

## CC(C)n1nc(-c2ccc3oc(N)nc3c2)c2c(N)ncnc21 + CC(Nc1ccc2c(c1)OCCn1cc(N3C(=O)OCC3C(F)F)nc1-2)C(N)=O
[1]
  pIC50: < 7.00
[2]
  pIC50: < 7.00
[3]
  pIC50: < 7.00
[4]
  pIC50: < 7.00
[5]
  pIC50: < 7.00
[6]
  pIC50: 7.03
Second compound 0.00316 µM, first compound 0.000316 µM
  viability, T/C: 92.2%
Second compound 0.00316 µM, first compound 0.001 µM
  viability, T/C: 90.5%
Second compound 0.00316 µM, first compound 0.00316 µM
  viability, T/C: 87.2%
Second compound 0.00316 µM, first compound 0.01 µM
  viability, T/C: 114%
[7]
  viability, T/C: 99.2%
[8]
  viability, T/C: 91.5%
Second compound 0.01 µM, first compound 0.000316 µM
  viability, T/C: 93%
Second compound 0.01 µM, first compound 0.001 µM
  viability, T/C: 102%
Second compound 0.01 µM, first compound 0.00316 µM
  viability, T/C: 111%
Second compound 0.01 µM, first compound 0.01 µM
  viability, T/C: 112%
[9]
  viability, T/C: 113%
[10]
  viability, T/C: 102%
Second compound 0.0316 µM, first compound 0.000316 µM
  viability, T/C: 100%
Second compound 0.0316 µM, first compound 0.001 µM
  viability, T/C: 95.3%
Second compound 0.0316 µM, first compound 0.00316 µM
  viability, T/C: 103%
Second compound 0.0316 µM, first compound 0.01 µM
  viability, T/C: 118%
[11]
  viability, T/C: 108%
[12]
  viability, T/C: 82.1%
Second compound 0.1 µM, first compound 0.000316 µM
  viability, T/C: 110%
Second compound 0.1 µM, first compound 0.001 µM
  viability, T/C: 95.3%
Second compound 0.1 µM, first compound 0.00316 µM
  viability, T/C: 100%
Second compound 0.1 µM, first compound 0.01 µM
  viability, T/C: 110%
[13]
  viability, T/C: 117%
[14]
  viability, T/C: 81.5%
Second compound 0.316 µM, first compound 0.000316 µM
  viability, T/C: 96.6%
Second compound 0.316 µM, first compound 0.001 µM
  viability, T/C: 95.8%
Second compound 0.316 µM, first compound 0.00316 µM
  viability, T/C: 98.8%
Second compound 0.316 µM, first compound 0.01 µM
  viability, T/C: 110%
[15]
  viability, T/C: 94.6%
[16]
  viability, T/C: 76.2%
Second compound 1 µM, first compound 0.000316 µM
  viability, T/C: 102%
Second compound 1 µM, first compound 0.001 µM
  viability, T/C: 118%
Second compound 1 µM, first compound 0.00316 µM
  viability, T/C: 106%
Second compound 1 µM, first compound 0.01 µM
  viability, T/C: 96.7%
[17]
  viability, T/C: 86.6%
[18]
  viability, T/C: 47.4%

## CC(=O)c1c(C)c2cnc(Nc3ccc(N4CCNCC4)cn3)nc2n(C2CCCC2)c1=O
Compound 0.000316 µM
  viability, T/C: 96.5% [middle of 4 runs]
Compound 0.001 µM
  viability, T/C: 98.8% [middle of 4 runs]
Compound 0.00316 µM
  viability, T/C: 98.5% [middle of 4 runs]
Compound 0.01 µM
  viability, T/C: 112% [middle of 4 runs]
Compound 0.0316 µM
  viability, T/C: 97.5% [middle of 4 runs]
Compound 0.1 µM
  viability, T/C: 115% [middle of 4 runs]
Curve of compound
  pIC50: < 7.00

## CC(Cn1ccc(-c2ccc(C#N)c(Cl)c2)n1)NC(=O)c1cc(C(C)O)[nH]n1 (stereo unspecified) + COc1c(OCCCN2CCOCC2)ccc2c3n(c(=NC(=O)c4cnc(N)nc4)nc12)CCN3
[1]
  pIC50: < 5.00
[2]
  pIC50: < 5.00
[3]
  pIC50: < 5.00
[4]
  pIC50: < 5.00
[5]
  pIC50: > 7.50
[6]
  pIC50: > 7.50
[7]
  viability, T/C: 93.9%
[8]
  viability, T/C: 93.3%
Second compound 0.00316 µM, first compound 0.316 µM
  viability, T/C: 88.6%
Second compound 0.00316 µM, first compound 1 µM
  viability, T/C: 95.8%
Second compound 0.00316 µM, first compound 3.16 µM
  viability, T/C: 104%
Second compound 0.00316 µM, first compound 10 µM
  viability, T/C: 91.3%
[9]
  viability, T/C: 99.4%
[10]
  viability, T/C: 86.7%
Second compound 0.01 µM, first compound 0.316 µM
  viability, T/C: 100%
Second compound 0.01 µM, first compound 1 µM
  viability, T/C: 90.8%
Second compound 0.01 µM, first compound 3.16 µM
  viability, T/C: 90.3%
Second compound 0.01 µM, first compound 10 µM
  viability, T/C: 86.2%
[11]
  viability, T/C: 99.1%
[12]
  viability, T/C: 102%
Second compound 0.0316 µM, first compound 0.316 µM
  viability, T/C: 99.9%
Second compound 0.0316 µM, first compound 1 µM
  viability, T/C: 109%
Second compound 0.0316 µM, first compound 3.16 µM
  viability, T/C: 93.2%
Second compound 0.0316 µM, first compound 10 µM
  viability, T/C: 84.2%
[13]
  viability, T/C: 90.8%
[14]
  viability, T/C: 91.4%
Second compound 0.1 µM, first compound 0.316 µM
  viability, T/C: 90.2%
Second compound 0.1 µM, first compound 1 µM
  viability, T/C: 96.8%
Second compound 0.1 µM, first compound 3.16 µM
  viability, T/C: 89.2%
Second compound 0.1 µM, first compound 10 µM
  viability, T/C: 83.4%
[15]
  viability, T/C: 35.2%
[16]
  viability, T/C: 34.7%
Second compound 0.316 µM, first compound 0.316 µM
  viability, T/C: 45.3%
Second compound 0.316 µM, first compound 1 µM
  viability, T/C: 33.5%
Second compound 0.316 µM, first compound 3.16 µM
  viability, T/C: 36%
Second compound 0.316 µM, first compound 10 µM
  viability, T/C: 28.5%
[17]
  viability, T/C: 27.7%
[18]
  viability, T/C: 17.2%
Second compound 1 µM, first compound 0.316 µM
  viability, T/C: 20.3%
Second compound 1 µM, first compound 1 µM
  viability, T/C: 24.8%
Second compound 1 µM, first compound 3.16 µM
  viability, T/C: 18.8%
Second compound 1 µM, first compound 10 µM
  viability, T/C: 17.8%
